Experimental data from BigSolDB 2.1.

C=C[C@]1(C)C[C@@H](OC(=O)CSC(C)(C)CNC(=O)[C@H](N)C(C)C)[C@]2(C)[C@H](C)CC[C@]3(CCC(=O)[C@H]32)[C@@H](C)[C@@H]1O.Cl
solubility (mole fraction)
Settings	278.15 K	283.15 K	288.15 K	293.15 K	298.15 K	303.15 K	308.15 K	313.15 K
in ethanol	0.0309	0.038	0.0432	0.0506	0.0601	0.0713	0.0837	0.101
in water	0.00162	0.00321	0.00545	0.00853	0.0135	0.0214	0.0344	0.0486
